Common to all, as to type: cell-based
What all share (conditions): compounds at 50 nM and 500 nM, 24 hours

One assay addresses T1, IKZF2 (Homo sapiens, UniProt Q96SW2+Q9UKS7).
T1 construct: effects of the compounds of the present disclosure on the expression of target proteins in cells; endogenous in cells; host or cells: human PBMCs (hPBMCs)
Briefly: Western-blot assay, substrate protein degradation in hPBMCs: IKZF2. The method, then: (§1) Conventional Western blot assay was performed to evaluate the effects of the compounds of the present disclosure on the expression of target proteins in cells. • (1) Cell Seeding and Protein Harvesting: Human peripheral blood mononuclear cells (hPBMCs) at a density of 1x10^6 cells/mL were thawed according to the PBMC Recovery Protocol (Milecell Biotechnologies Inc, Shanghai). […] After 24 hours of compounds treatment, cells were harvested and lysed in RIPA protein lysate containing protease inhibitors on ice for 30 min, followed by centrifugation. The supernatant was aspirated as the extracted total cell protein. The protein concentration of the supernatant was determined using the conventional BCA (Bicinchoninic Acid) assay. • (2) To the collected supernatant, 5X SDS sample loading buffer was added, followed by denaturation at 95°C for 5 minutes. The denatured samples were then separated by SDS-PAGE electrophoresis on a polyacrylamide gel. Proteins were transferred to a nitrocellulose membrane (0.45 µm NC membrane), blocked with blocking buffer at room temperature for 1 hour, and subjected to antibody incubation and development procedures according to the antibody manufacturer's instructions (Cell Signaling Technology).
(§2) Half-Maximal Degradation Concentration value (the drug concentration required for degrading proteins by 50%, abbreviated as DC50) reads method: comparing the grayscale values of Western blot bands from drug-treated samples with those from blank DMSO-treated controls, and identifying the drug concentration range at which the grayscale value is half that of the DMSO-treated control bands.
(§3) DC50 values can be calculated using ImageJ software to measure grayscale values of Western blot bands from drug-treated samples. The concentration-response curve is fitted to estimate the drug concentration corresponding to half the grayscale value.
(§4) Target protein remaining (%) refers to the percentage of target protein remaining in cells after treatment with protein degrader compounds.
(§5) Calculation method for target protein remaining (%): Use ImageJ software to measure grayscale values of Western blot bands from drug (protein degrader)-treated samples. The grayscale value of drug-treated bands is divided by that of internal control protein bands, and the resulting quotient is normalized to obtain the relative percentage of remaining target protein after protein degrader treatment. Target protein degradation rate(%) = 1−target protein remaining(%). [formula]

A further assay concerns the target T2, IKZF1 (Homo sapiens, UniProt Q13422+Q96SW2).
T2 construct: effects of the compounds of the present disclosure on the expression of target proteins in cells; endogenous in cells; host or cells: human PBMCs (hPBMCs)
Put plainly: Western-blot assay, substrate protein degradation in hPBMCs: IKZF1. The method, then: as §1, §2, §3, §4, §5

Another assay concerns the target T3, WEE1 (Homo sapiens, UniProt P30291+Q96SW2).
T3 construct: effects of the compounds of the present disclosure on the expression of target proteins in cells; endogenous in cells; host or cells: human PBMCs (hPBMCs)
Put plainly: Western-blot assay, substrate protein degradation in hPBMCs: WEE1. The method, then:
as §1, §2, §3, §4, §5

The target in a further assay is T4, IKZF3 (Homo sapiens, UniProt Q96SW2+Q9UKT9).
T4 construct: effects of the compounds of the present disclosure on the expression of target proteins in cells; endogenous in cells; host or cells: human PBMCs (hPBMCs)
Put plainly: Western-blot assay, substrate protein degradation in hPBMCs: IKZF3. The method, then:
as §1, §2, §3, §4, §5

The next assay addresses T5, GSPT1 (Homo sapiens, UniProt P15170+Q96SW2).
T5 construct: effects of the compounds of the present disclosure on the expression of target proteins in cells; endogenous in cells; host or cells: human PBMCs (hPBMCs)
Briefly: Western-blot assay, substrate protein degradation in hPBMCs: GSPT1. Here is the method:
as §1, §2, §3, §4, §5

A further assay concerns the target T6, CK1α (Homo sapiens, UniProt P48729+Q96SW2).
T6 construct: effects of the compounds of the present disclosure on the expression of target proteins in cells; endogenous in cells; host or cells: human PBMCs (hPBMCs)
Put plainly: Western-blot assay, substrate protein degradation in hPBMCs: CK1α. Here is the method:
as §1, §2, §3, §4, §5

We go through eleven compounds from patent publication EP4722207A1, “OXOISOINDOLINYL-SUBSTITUTED TETRAHYDROPYRIMIDINEDIONE DERIVATIVE AND USE THEREOF” (Gluetacs Therapeutics (Shanghai) Co., Ltd., priority 2023, dated 2024).

Structures are written as SMILES.

T1 sequence (Q9UKS7 whole entry): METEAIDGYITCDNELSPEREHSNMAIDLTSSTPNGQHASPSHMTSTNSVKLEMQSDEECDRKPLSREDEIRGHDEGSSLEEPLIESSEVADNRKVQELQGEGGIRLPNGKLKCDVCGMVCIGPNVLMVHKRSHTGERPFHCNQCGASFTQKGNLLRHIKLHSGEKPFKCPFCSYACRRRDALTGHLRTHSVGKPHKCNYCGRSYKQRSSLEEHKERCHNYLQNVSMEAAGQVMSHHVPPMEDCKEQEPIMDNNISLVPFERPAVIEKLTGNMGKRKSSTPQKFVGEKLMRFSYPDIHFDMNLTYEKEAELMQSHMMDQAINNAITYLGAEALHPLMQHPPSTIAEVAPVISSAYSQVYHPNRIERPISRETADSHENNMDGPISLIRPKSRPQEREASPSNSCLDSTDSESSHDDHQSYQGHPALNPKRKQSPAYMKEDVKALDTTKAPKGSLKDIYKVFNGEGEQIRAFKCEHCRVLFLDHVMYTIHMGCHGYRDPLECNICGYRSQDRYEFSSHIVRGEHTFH
T1 sequence (Q96SW2 whole entry): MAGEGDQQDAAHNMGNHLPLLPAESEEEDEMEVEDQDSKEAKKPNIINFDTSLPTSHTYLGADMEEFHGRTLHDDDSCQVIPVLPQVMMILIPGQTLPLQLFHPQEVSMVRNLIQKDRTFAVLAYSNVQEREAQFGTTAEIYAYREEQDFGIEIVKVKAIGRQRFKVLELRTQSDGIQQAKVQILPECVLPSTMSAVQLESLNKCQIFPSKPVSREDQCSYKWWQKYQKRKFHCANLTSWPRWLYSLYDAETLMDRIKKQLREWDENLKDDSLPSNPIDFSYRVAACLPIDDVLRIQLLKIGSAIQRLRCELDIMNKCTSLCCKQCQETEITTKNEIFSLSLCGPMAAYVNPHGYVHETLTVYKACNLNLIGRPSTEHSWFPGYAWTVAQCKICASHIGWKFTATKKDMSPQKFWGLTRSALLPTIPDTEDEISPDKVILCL
T1 sequence (Q16531 whole entry partner): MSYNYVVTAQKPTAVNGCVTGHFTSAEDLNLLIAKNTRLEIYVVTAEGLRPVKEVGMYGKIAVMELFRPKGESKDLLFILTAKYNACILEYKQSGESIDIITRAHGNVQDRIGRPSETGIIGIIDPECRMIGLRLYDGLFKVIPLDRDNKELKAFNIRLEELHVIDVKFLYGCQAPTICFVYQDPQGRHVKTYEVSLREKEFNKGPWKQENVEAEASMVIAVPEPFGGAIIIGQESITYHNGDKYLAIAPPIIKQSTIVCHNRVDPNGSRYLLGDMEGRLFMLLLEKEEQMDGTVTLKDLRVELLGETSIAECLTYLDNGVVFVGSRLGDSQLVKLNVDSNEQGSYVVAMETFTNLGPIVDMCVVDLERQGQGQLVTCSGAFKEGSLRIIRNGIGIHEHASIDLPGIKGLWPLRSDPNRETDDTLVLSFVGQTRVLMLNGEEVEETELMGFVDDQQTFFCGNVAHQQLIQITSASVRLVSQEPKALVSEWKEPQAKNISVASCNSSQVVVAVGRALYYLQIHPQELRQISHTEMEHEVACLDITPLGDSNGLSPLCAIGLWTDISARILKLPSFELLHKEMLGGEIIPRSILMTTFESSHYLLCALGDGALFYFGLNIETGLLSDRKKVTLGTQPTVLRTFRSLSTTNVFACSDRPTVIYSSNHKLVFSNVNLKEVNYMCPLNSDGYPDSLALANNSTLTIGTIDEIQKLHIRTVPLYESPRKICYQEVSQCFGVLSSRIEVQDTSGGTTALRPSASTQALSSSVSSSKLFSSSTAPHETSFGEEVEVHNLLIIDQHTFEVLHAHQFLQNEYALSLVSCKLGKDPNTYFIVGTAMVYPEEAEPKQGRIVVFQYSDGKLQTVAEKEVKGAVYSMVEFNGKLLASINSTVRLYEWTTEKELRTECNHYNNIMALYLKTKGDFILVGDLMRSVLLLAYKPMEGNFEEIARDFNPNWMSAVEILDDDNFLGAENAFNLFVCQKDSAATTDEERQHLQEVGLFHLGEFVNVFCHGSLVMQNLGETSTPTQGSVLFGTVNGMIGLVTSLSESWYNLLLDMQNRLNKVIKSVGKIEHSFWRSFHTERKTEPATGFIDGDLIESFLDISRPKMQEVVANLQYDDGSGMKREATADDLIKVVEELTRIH
T3 sequence (P30291 whole entry): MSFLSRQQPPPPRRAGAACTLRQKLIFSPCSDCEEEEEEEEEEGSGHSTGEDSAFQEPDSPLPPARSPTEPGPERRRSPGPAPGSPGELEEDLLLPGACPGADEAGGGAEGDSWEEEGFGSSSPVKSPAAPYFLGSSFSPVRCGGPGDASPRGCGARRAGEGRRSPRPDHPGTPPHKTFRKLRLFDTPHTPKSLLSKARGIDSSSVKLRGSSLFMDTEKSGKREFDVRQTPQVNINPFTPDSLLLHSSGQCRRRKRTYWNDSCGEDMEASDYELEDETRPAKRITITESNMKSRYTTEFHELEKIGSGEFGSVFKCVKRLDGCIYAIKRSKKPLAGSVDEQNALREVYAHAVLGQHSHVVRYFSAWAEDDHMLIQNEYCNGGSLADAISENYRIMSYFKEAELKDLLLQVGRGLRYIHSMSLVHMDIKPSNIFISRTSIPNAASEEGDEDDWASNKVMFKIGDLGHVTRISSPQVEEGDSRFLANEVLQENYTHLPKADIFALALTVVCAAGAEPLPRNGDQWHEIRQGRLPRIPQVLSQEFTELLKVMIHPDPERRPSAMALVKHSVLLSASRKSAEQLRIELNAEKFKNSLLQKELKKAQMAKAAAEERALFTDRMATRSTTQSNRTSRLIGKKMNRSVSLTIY
T3 sequence (Q96SW2 whole entry): as the sequence (Q96SW2 whole entry) above
T3 sequence (Q16531 whole entry partner): as the sequence (Q16531 whole entry partner) above
T4 sequence (Q9UKT9 whole entry): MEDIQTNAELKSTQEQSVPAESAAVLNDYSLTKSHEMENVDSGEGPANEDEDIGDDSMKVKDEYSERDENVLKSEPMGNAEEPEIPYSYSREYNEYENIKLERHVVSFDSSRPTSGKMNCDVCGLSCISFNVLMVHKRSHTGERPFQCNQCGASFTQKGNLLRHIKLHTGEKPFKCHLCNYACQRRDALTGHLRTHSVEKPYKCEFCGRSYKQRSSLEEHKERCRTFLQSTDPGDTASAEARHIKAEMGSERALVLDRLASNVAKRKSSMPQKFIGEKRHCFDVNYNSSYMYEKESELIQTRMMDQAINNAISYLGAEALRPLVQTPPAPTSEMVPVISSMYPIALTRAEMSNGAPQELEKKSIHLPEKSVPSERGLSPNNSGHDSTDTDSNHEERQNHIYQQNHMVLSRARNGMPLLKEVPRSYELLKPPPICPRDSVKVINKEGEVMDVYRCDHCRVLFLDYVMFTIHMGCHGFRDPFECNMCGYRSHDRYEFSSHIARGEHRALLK
T4 sequence (Q96SW2 whole entry): as the sequence (Q96SW2 whole entry) above
T4 sequence (Q16531 whole entry partner): as the sequence (Q16531 whole entry partner) above
T5 sequence (P15170 whole entry): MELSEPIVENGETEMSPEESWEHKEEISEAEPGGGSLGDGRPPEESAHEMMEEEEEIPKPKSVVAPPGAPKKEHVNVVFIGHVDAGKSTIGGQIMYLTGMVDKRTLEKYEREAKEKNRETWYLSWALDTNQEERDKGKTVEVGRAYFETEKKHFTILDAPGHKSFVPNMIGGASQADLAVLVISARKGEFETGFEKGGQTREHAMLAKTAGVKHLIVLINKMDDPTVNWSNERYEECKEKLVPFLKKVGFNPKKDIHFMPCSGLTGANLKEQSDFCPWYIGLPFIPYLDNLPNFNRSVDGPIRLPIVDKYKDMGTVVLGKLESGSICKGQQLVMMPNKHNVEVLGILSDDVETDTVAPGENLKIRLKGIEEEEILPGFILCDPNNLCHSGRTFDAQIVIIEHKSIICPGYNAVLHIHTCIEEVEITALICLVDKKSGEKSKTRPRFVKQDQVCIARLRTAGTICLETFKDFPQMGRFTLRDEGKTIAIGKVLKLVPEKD
T5 sequence (Q96SW2 whole entry): as the sequence (Q96SW2 whole entry) above
T5 sequence (Q16531 whole entry partner): as the sequence (Q16531 whole entry partner) above
T2 sequence (Q13422 whole entry): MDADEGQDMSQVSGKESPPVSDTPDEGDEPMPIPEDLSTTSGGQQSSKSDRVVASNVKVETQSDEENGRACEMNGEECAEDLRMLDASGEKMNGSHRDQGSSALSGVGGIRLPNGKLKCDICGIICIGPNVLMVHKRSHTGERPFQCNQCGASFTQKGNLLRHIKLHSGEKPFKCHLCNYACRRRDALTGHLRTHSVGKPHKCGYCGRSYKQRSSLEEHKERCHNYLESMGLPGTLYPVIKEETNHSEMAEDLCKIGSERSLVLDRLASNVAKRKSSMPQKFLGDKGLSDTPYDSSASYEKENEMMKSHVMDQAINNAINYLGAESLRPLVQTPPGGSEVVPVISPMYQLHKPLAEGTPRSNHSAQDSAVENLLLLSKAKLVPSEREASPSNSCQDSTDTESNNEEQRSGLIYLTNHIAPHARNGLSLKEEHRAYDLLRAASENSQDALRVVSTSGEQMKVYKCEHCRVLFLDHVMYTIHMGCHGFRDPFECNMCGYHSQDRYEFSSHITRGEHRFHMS
T2 sequence (Q96SW2 whole entry): as the sequence (Q96SW2 whole entry) above
T2 sequence (Q16531 whole entry partner): as the sequence (Q16531 whole entry partner) above

Consider `O=C1CCN(N2C(=O)c3ccc(CN4CCN(c5ccccc5Cl)CC4)cc3C2=O)C(=O)N1` [GT-06726, 5-((4-(2-chlorophenyl)piperazin-1-yl)methyl)-2-(2,4-dioxotetrahydropyrimidin-1(2H)-yl)isoindoline-1,3-dione], for which, on IKZF2, the “IKZF2 substrate protein remaining %” value is “A ("A" is defined as 0% ≤ substrate protein remaining % ≤ 80%)”. Also, the “IKZF1 substrate protein remaining %” value at IKZF1 is listed as “B ("B" is defined as 80%< substrate protein remaining %≤ 100%)”. In addition, on WEE1, the “WEE1 substrate protein remaining %” value is recorded as “A ("A" is defined as 0% ≤ substrate protein remaining % ≤ 80%)”. Also, the “IKZF3 substrate protein remaining %” value on IKZF3 was “A ("A" is defined as 0% ≤ substrate protein remaining % ≤ 80%)”. The “GSPT1 substrate protein remaining %” value on GSPT1 is reported as “B ("B" is defined as 80%< substrate protein remaining %≤ 100%)”. Also, the “CK1α substrate protein remaining %” value on CK1α is reported as “A ("A" is defined as 0% ≤ substrate protein remaining % ≤ 80%)”.
Regarding `O=C1CCN(N2C(=O)c3ccc(CN4CCN(c5ccncc5)CC4)cc3C2=O)C(=O)N1` [GT-07073, 2-(2,4-dioxotetrahydropyrimidin-1(2H)-yl)-5-((4-(pyridin-4-yl)piperazin-1-yl)methyl)isoindoline-1,3-dione], the “IKZF2 substrate protein remaining %” value on IKZF2 was “B ("B" is defined as 80%< substrate protein remaining %≤ 100%)”. The “IKZF1 substrate protein remaining %” value at IKZF1 is given as “B ("B" is defined as 80%< substrate protein remaining %≤ 100%)”. The “WEE1 substrate protein remaining %” value at WEE1 is “A ("A" is defined as 0% ≤ substrate protein remaining % ≤ 80%)”. For the same compound, on IKZF3, the “IKZF3 substrate protein remaining %” value was “B ("B" is defined as 80%< substrate protein remaining %≤ 100%)”. In addition, at GSPT1, the “GSPT1 substrate protein remaining %” value is on record as “B ("B" is defined as 80%< substrate protein remaining %≤ 100%)”. Also, the “CK1α substrate protein remaining %” value at CK1α is “B ("B" is defined as 80%< substrate protein remaining %≤ 100%)”.
`O=C1CCN(N2Cc3cc(CN4CCN(c5ccc(C(F)(F)F)cn5)CC4)ccc3C2=O)C(=O)N1` [GT-05176, 1-(1-oxo-5-((4-(5-(trifluoromethyl)pyridin-2-yl)piperazin-1-yl)methyl)isoindolin-2-yl)dihydropyrimidine-2,4(1H,3H)-dione]: the “IKZF2 substrate protein remaining %” value on IKZF2 is on record as “B ("B" is defined as 80%< substrate protein remaining %≤ 100%)”. In addition, the “IKZF1 substrate protein remaining %” value on IKZF1 is “B ("B" is defined as 80%< substrate protein remaining %≤ 100%)”. For the same compound, the “CK1α substrate protein remaining %” value on CK1α is listed as “B ("B" is defined as 80%< substrate protein remaining %≤ 100%)”.
On to `O=C1CCN(N2Cc3cc(CN4CCN(c5ncccc5C(F)(F)F)CC4)ccc3C2=O)C(=O)N1` [GT-05174, 1-(1-oxo-5-((4-(3-(trifluoromethyl)pyridin-2-yl)piperazin-1-yl)methyl)isoindolin-2-yl)dihydropyrimidine-2,4(1H,3H)-dione], for which the “IKZF1 substrate protein remaining %” value at IKZF1 was “B ("B" is defined as 80%< substrate protein remaining %≤ 100%)”. For the same compound, the “IKZF3 substrate protein remaining %” value on IKZF3 is listed as “B ("B" is defined as 80%< substrate protein remaining %≤ 100%)”. Moreover, on CK1α, the “CK1α substrate protein remaining %” value was “B ("B" is defined as 80%< substrate protein remaining %≤ 100%)”.
Turning to `O=C1CCN(N2Cc3cc(CN4CCN(c5cccc(C(F)(F)F)n5)CC4)ccc3C2=O)C(=O)N1` [GT-05175, 1-(1-oxo-5-((4-(6-(trifluoromethyl)pyridin-2-yl)piperazin-1-yl)methyl)isoindolin-2-yl)dihydropyrimidine-2,4(1H,3H)-dione], the “IKZF2 substrate protein remaining %” value on IKZF2 is recorded as “B ("B" is defined as 80%< substrate protein remaining %≤ 100%)”. In addition, the “IKZF1 substrate protein remaining %” value on IKZF1 is “B ("B" is defined as 80%< substrate protein remaining %≤ 100%)”. In addition, the “WEE1 substrate protein remaining %” value on WEE1 is on record as “A ("A" is defined as 0% ≤ substrate protein remaining % ≤ 80%)”. Also, on GSPT1, the “GSPT1 substrate protein remaining %” value was “A ("A" is defined as 0% ≤ substrate protein remaining % ≤ 80%)”.
For the compound `O=C1CCN(N2C(=O)c3ccc(CN4CCN(c5cccc(Cl)n5)CC4)cc3C2=O)C(=O)N1` [GT-05353, 5-((4-(6-chloropyridin-2-yl)piperazin-1-yl)methyl)-2-(2,4-dioxotetrahydropyrimidin-1(2H)-yl)isoindoline-1,3-dione], the “IKZF2 substrate protein remaining %” value at IKZF2 is listed as “B ("B" is defined as 80%< substrate protein remaining %≤ 100%)”. Also, the “IKZF1 substrate protein remaining %” value at IKZF1 is “B ("B" is defined as 80%< substrate protein remaining %≤ 100%)”. The “IKZF3 substrate protein remaining %” value on IKZF3 is recorded as “B ("B" is defined as 80%< substrate protein remaining %≤ 100%)”. The “GSPT1 substrate protein remaining %” value at GSPT1 was “A ("A" is defined as 0% ≤ substrate protein remaining % ≤ 80%)”. Besides, the “CK1α substrate protein remaining %” value at CK1α is given as “B ("B" is defined as 80%< substrate protein remaining %≤ 100%)”.
On to `O=C1CCN(N2Cc3cc(CN4CCN(c5nccc(F)c5F)CC4)ccc3C2=O)C(=O)N1` [GT-05357, 1-(5-((4-(3,4-difluoropyridin-2-yl)piperazin-1-yl)methyl)-1-oxoisoindolin-2-yl)dihydropyrimidine-2,4(1H,3H)-dione], for which, at IKZF2, the “IKZF2 substrate protein remaining %” value is listed as “B ("B" is defined as 80%< substrate protein remaining %≤ 100%)”. In addition, the “IKZF1 substrate protein remaining %” value on IKZF1 is reported as “B ("B" is defined as 80%< substrate protein remaining %≤ 100%)”. For the same compound, the “IKZF3 substrate protein remaining %” value on IKZF3 is on record as “B ("B" is defined as 80%< substrate protein remaining %≤ 100%)”. At CK1α, the “CK1α substrate protein remaining %” value was “B ("B" is defined as 80%< substrate protein remaining %≤ 100%)”.
Regarding `O=C1CCN(N2C(=O)c3ccc(CN4CCN(c5cc(Cl)ccn5)CC4)cc3C2=O)C(=O)N1` [GT-05354, 5-((4-(4-chloropyridin-2-yl)piperazin-1-yl)methyl)-2-(2,4-dioxotetrahydropyrimidin-1(2H)-yl)isoindoline-1,3-dione], the “IKZF1 substrate protein remaining %” value on IKZF1 was “B ("B" is defined as 80%< substrate protein remaining %≤ 100%)”. Besides, the “GSPT1 substrate protein remaining %” value on GSPT1 is “A ("A" is defined as 0% ≤ substrate protein remaining % ≤ 80%)”. Moreover, the “CK1α substrate protein remaining %” value at CK1α is recorded as “B ("B" is defined as 80%< substrate protein remaining %≤ 100%)”.
In the case of `O=C1CCN(N2C(=O)c3ccc(CN4CCN(c5ncccc5F)CC4)cc3C2=O)C(=O)N1` [GT-05355, 2-(2,4-dioxotetrahydropyrimidin-1(2H)-yl)-5-((4-(3-fluoropyridin-2-yl)piperazin-1-yl)methyl)isoindoline-1,3-dione], the “IKZF1 substrate protein remaining %” value at IKZF1 is “B ("B" is defined as 80%< substrate protein remaining %≤ 100%)”. Further, the “WEE1 substrate protein remaining %” value on WEE1 is “B ("B" is defined as 80%< substrate protein remaining %≤ 100%)”. Moreover, the “IKZF3 substrate protein remaining %” value on IKZF3 is on record as “B ("B" is defined as 80%< substrate protein remaining %≤ 100%)”. Also, the “GSPT1 substrate protein remaining %” value on GSPT1 was “A ("A" is defined as 0% ≤ substrate protein remaining % ≤ 80%)”. The “CK1α substrate protein remaining %” value at CK1α is on record as “B ("B" is defined as 80%< substrate protein remaining %≤ 100%)”.
For the compound `O=C1CCN(N2C(=O)c3ccc(CN4CCN(c5ccccn5)CC4)cc3C2=O)C(=O)N1` [GT-05351, 2-(2,4-dioxotetrahydropyrimidin-1(2H)-yl)-5-((4-(pyridin-2-yl)piperazin-1-yl)methyl)isoindoline-1,3-dione], the “IKZF2 substrate protein remaining %” value on IKZF2 is “A ("A" is defined as 0% ≤ substrate protein remaining % ≤ 80%)”. Further, the “IKZF1 substrate protein remaining %” value at IKZF1 was “B ("B" is defined as 80%< substrate protein remaining %≤ 100%)”. Moreover, the “IKZF3 substrate protein remaining %” value at IKZF3 is reported as “B ("B" is defined as 80%< substrate protein remaining %≤ 100%)”. In addition, on CK1α, the “CK1α substrate protein remaining %” value is given as “B ("B" is defined as 80%< substrate protein remaining %≤ 100%)”.
Consider `O=C1CCN(N2Cc3cc(CN4CCN(c5ncc(Cl)cc5Cl)CC4)ccc3C2=O)C(=O)N1` [GT-05356, 1-(5-((4-(3,5-dichloropyridin-2-yl)piperazin-1-yl)methyl)-1-oxoisoindolin-2-yl)dihydropyrimidine-2,4(1H,3H)-dione], for which the “IKZF1 substrate protein remaining %” value on IKZF1 was “B ("B" is defined as 80%< substrate protein remaining %≤ 100%)”. In addition, at IKZF3, the “IKZF3 substrate protein remaining %” value is listed as “B ("B" is defined as 80%< substrate protein remaining %≤ 100%)”. Besides, the “CK1α substrate protein remaining %” value on CK1α is “B ("B" is defined as 80%< substrate protein remaining %≤ 100%)”.
